Assay [1] has as its target T1, ADAMTS-5 (Agg-2), purified recombinant human Aggrecanase-2 (Ag2t-Phe628-Strep) (Homo sapiens, UniProt Q9UNA0).
T1 construct: the form used is denoted as Ag2t-Phe628-Strep (MW=41,737)
T1 sequence (Q9UNA0 262-628): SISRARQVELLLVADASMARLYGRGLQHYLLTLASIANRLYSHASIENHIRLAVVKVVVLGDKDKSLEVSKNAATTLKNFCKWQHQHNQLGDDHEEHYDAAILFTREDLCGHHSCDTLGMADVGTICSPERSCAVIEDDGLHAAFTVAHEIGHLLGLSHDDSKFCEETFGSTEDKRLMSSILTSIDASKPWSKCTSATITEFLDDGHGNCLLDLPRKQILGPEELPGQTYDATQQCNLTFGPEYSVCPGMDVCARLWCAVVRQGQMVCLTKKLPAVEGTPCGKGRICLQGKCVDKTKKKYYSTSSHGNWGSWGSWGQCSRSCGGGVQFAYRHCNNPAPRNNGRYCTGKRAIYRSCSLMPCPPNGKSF
As to the kind of experiment: Inhibition of aggrecanase activity of ADAMTS-5 (Agg-2), continuous fluorescent quenched-peptide assay (WAKB-5 substrate). Format: biochemical. The following applies: concentration that inhibits 50% of the aggrecanase activity of ADAMTS-5 (Agg-2); substrate 25 μM, pH 7.4, room temperature. How it is done:
The biaryl sulfonamide compounds of the present invention were tested for their ability to inhibit the aggrecanase activity of ADAMTS-4 (Agg-1) and ADAMTS-5 (Agg-2).
A continuous assay was used in which the substrate upon which Agg-1 and […] acts is a synthetic peptide containing a fluorescent group that is quenched by energy transfer. Cleavage of the peptide by the aggrecanase enzyme results in a large increase in fluorescence. The initial rates of the reaction are compared to the initial rates of reactions containing the biaryl sulfonamide compounds in order to assess the inhibitor potency of the compounds.
The source of enzyme in the assay is purified recombinant human Aggrecanase-2. More specifically, the form used is denoted as Ag2t-Phe628-Strep (MW=41,737). This form is truncated relative to the full-length enzyme and contains an affinity tag. Aliquots of this enzyme were stored at −80° C. in 25 mM Tris (pH 8.0), 100 mM NaCl, 5 mM CaCl2, 10 μM ZnCl2, 10% glycerol.
The substrate in the assay is a synthetic peptide that is designed after a portion of brevican, one of the naturally occurring substrates of Aggrecanase-2. […] WAKB-5 (mass=1740) was custom synthesized by AnaSpec, Inc. (San Jose, Calif.) and was >95% pure based on HPLC analysis. […] Stock solutions of the substrate were prepared with MilliQ water and aliquots were stored at −80° C. The concentration of this substrate stock was spectrophotometrically determined using the extinction coefficient at 354 nm of 18,172 M^−1 cm^−1.
The assay buffer (pH 7.4) consisted of 50 mM Hepes, 100 mM NaCl, 5 mM CaCl2, 0.1% CHAPS, 5% glycerol. Each well of black polystyrene 96-well or 384-well plates contained a reaction consisting of assay buffer, purified Agg-2 (diluted with assay buffer), and varied concentrations of inhibitor (prepared by serial dilution in DMSO in 96-well polypropylene plates). The plates were then incubated at room temperature for 10 minutes. The enzymatic reactions were initiated by adding substrate to a final concentration of 25 μM and were mixed by pipetting up and down. The initial rates of the cleavage reactions were determined at room temperature with a fluorescence plate reader immediately after substrate addition.
Analysis of the results was conducted by generating a plot of time vs. RFU for each sample. This was used as the “progress curve” of the reaction. The slope for the portion of the progress curve that is most linear was then determined. This slope (RFU/min) was used as the initial rate of the reaction. Plots of the inhibitor concentration vs. the initial cleavage rate were then fit to the following equation: y=Vmax*(1−(x^n/(K^n+x^n))), whereby x=inhibitor concentration, y=initial rate, Vmax=initial rate in the absence of inhibitor, n=slope factor, and K=IC50 for the inhibition curve.

The next assay concerns the target T2, ADAMTS-4 (Agg-1) (Homo sapiens, UniProt O75173).
T2 sequence (O75173 213-837): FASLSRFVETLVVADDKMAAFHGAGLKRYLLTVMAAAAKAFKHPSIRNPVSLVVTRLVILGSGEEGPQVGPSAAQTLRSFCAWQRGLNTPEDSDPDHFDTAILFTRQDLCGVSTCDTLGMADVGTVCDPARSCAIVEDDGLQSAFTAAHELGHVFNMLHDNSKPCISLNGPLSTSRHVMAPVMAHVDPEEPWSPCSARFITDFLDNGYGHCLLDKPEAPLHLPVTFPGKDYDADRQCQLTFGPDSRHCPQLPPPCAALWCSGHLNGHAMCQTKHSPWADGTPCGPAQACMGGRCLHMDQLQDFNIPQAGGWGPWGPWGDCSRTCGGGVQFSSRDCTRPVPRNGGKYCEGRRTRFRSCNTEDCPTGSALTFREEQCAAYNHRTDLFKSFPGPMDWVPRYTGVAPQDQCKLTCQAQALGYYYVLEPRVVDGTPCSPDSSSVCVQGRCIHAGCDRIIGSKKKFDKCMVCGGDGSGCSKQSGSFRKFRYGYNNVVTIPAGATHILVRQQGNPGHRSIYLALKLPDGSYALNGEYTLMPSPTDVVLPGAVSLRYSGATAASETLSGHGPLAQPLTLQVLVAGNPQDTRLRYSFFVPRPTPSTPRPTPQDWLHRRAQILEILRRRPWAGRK
The assay can be described thus: Inhibition of aggrecanase activity of ADAMTS-4 (Agg-1), continuous fluorescent quenched-peptide assay.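 Further: purified enzyme preincubated 10 min with inhibitor at room temperature, then initial substrate cleavage rate (RFU/min) read by fluorescence plate reader versus the uninhibited rate.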 Type of assay: biochemical. Particulars: concentration that inhibits 50% of the aggrecanase activity of ADAMTS-4 (Agg-1).

Method for ADAMTS-4 (Agg-1): A continuous assay was used in which the substrate upon which Agg-1 and Agg-1 acts is a synthetic peptide containing a fluorescent group that is quenched by energy transfer. […] The initial rates of the reaction are compared to the initial rates of reactions containing the biaryl sulfonamide compounds in order to assess the inhibitor potency of the compounds.
The assay buffer (pH 7.4) consisted of 50 mM Hepes, 100 mM NaCl, 5 mM CaCl2, 0.1% CHAPS, 5% glycerol. Each well of black polystyrene 96-well or 384-well plates contained a reaction consisting of assay buffer, purified Agg-2 (diluted with assay buffer), and varied concentrations of inhibitor (prepared by serial dilution in DMSO in 96-well polypropylene plates). The plates were then incubated at room temperature for 10 minutes. […] The initial rates of the cleavage reactions were determined at room temperature with a fluorescence plate reader immediately after substrate addition.

As usually defined, the IC50 is the point on the concentration scale where inhibition reaches its midpoint. Take `CC(C)[C@@H](NS(=O)(=O)c1ccc(-c2ccc(COc3ccc(C(=O)c4ccc(F)cc4)cc3)cc2)cc1)C(=O)O` [drawing 171]: the figures for the IC50 (in assay [1]; on ADAMTS-4 (Agg-1)) were 2.5 µM and 0.1 µM, respectively.
The matching figures for `CC(C)[C@@H](NS(=O)(=O)c1ccc(-c2ccc(COc3ccc(C(=O)c4ccc(F)cc4)cc3)cc2)cc1)C(=O)O` [drawing 172]: 2.4 µM and 0.1 µM.

The values are drawn from patent US7390833B2, “Method for treating ADAMTS-5-associated disease” (Wyeth, priority 2003, dated 2008).
